Literature values as cited in PMC3172588 (Organic & Biomolecular Chemistry, 2010).

Legend:
[1] = system: T cell-cADPR receptor (permeabilised Jurkat T-cells, JTC); settings: class in words; ref [8],[17],[23],[36]
[2] = system: sea urchin cADPR receptor (sea urchin egg homogenate, SUH)

## O=c1c2nc(Br)n3c2ncn1[C@@H]1O[C@H](COP(=O)(O)OP(=O)(O)OC[C@H]2O[C@@H]3[C@H](O)[C@@H]2O)[C@@H](O)[C@H]1O [8-Bromo cIDPR]
[1]
  Activity in T cells / JTC (running text, literature): agonist activity

## [N-]=[N+]=Nc1nc2c(=N)n3cnc2n1C1OC(COP(=O)(O)OP(=O)(O)OCC2OC3C(O)C2O)C(O)C1O (stereo not shown) [8-azido-cADPR]
[2]; class in words, ref [8],[13],[17],[23],[32],[36],[38]
  Activity in SUH (running text, literature): antagonists

## 8-Cl-cADPcR [8-Cl-cADPcR (5)]
[2]; read-out: Activity in SUH: agonist EC50, Table 3, compounds synthesized by Shuto's group, ref [15],[38],[51],[52]
  EC50: 19 µM

## 3-deaza cADPR
[2]; agonist, ref [20]
  times more potent than cADPR in SUH: 70 times
